According to patent US6767991B1, “Hepatitis C inhibitor peptides” (priority 1997, dated 2004):
Where two headings read alike, the source gives them in different places. Where a SMILES comes first, the peptide text is derived from it. [ ]: non-standard residue; d: D form. The star is where a group is joined. Acca(2-Et,1R,2R) = CC[C@@H]1C[C@]1(N)C(=O)O; CH2(1-naphthyl) = c1ccc2c(C*)cccc2c1; Hyp = O=C(O)[C@@H]1C[C@@H](O)CN1; Chg = N[C@H](C(=O)O)C1CCCCC1; Nva = CCC[C@H](N)C(=O)O; X1 = c1ccc2cc(C*)ccc2c1; Ac3c = NC1(C(=O)O)CC1; Bn = c1ccc(C*)cc1

Key:
[1] = molecular target: porcine pancreatic elastase (Sus scrofa, UniProt P00772); assay: biochemical
Chain of porcine pancreatic elastase (P00772 27-266): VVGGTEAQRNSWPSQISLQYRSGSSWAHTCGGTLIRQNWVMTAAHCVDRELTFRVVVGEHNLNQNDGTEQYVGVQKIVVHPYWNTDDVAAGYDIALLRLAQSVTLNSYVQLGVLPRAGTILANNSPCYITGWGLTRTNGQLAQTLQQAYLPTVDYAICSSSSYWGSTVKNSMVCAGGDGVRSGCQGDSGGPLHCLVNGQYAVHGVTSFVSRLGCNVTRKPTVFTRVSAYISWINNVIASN
Protocol: (§4) The specificity of the compounds was determined against a variety of serine proteases: human leukocyte elastase, porcine pancreatic elastase and bovine pancreatic α-chymotrypsin and one cysteine protease: human liver cathepsin B. In all cases a 96-well plate format protocol using a colorimetric p-nitroaniline (pNA) substrate specific for each enzyme was used. Each assay included a 1 h enzyme-inhibitor pre-incubation at 30° C. followed by addition of substrate and hydrolysis to ≈30% conversion as measured on a UV Thermomax® microplate reader. Substrate concentrations were kept as low as possible compared to KM to reduce substrate competition. Compound concentrations varied from 300 to 0.06 μM depending on their potency. The final conditions for each assay were as follows:
(§5) 50 mM Tris-HCl pH 8, 0.5 M Na2SO4, 50 mM NaCl, 0.1 mM EDTA, 3% DMSO, 0.01% Tween-20 with;
[100 μM Succ-AAPF-pNA [SEQ. […] 7] and 250 pM α-chymotrypsin], [133 μM Succ-AAA-pNA and 8 nM porcine elastase], [133 μM Succ-AAV-pNA and 8 nM leukocyte elastase]; or
A representative example is summarized below for porcine pancreatic elastase: In a polystyrene flat-bottom 96-well plate were added using a Biomek liquid handler (Beckman):
40 μL of assay buffer (50 mM Tris-HCl pH 8, 50 mM NaCl, 0.1 mM EDTA);
20 μL of enzyme solution (50 mM Tris-HCl pH 8, 50 mM NaCl, 0.1 mM EDTA, 0.02% Tween-20, 40 nM porcine pancreatic elastase); and
20 μL of inhibitor solution (50 mM Tris-HCl, pH 8, 50 mM NaCl, 0.1 mM EDTA, 0.02% Tween-20, 1.5 mM-0.3 μM inhibitor, 15% v/v DMSO).
After 60 min pre-incubation at 30° C., 20 μL of substrate solution (50 mM Tris/HCl, pH 8, 0.5 M Na2SO4, 50 mM NaCl, 0.1 mM EDTA, 665 μM Succ-AAA-pNA) were added to each well and the reaction was further incubated at 30° C. for 60 min after which time the absorbance was read on the UV Thermomax® plate reader. Rows of wells were allocated for controls (no inhibitor) and for blanks (no inhibitor and no enzyme). The sequential 2-fold dilutions of the inhibitor solution were performed on a separate plate by the liquid handler using 50 mM Tris-HCl pH 8, 50 mM NaCl, 0.1 mM EDTA, 0.02% Tween-20, 15% DMSO. All other specificity assays were performed in a similar fashion.
A non-linear curve fit with the Hill model was applied to the inhibition-concentration data, and the 50% effective concentration (IC50) was calculated by the use of SAS software (Statistical Software System; SAS Institute, Inc., Cary, N.C.).

[2] = molecular target: bovine pancreatic α-chymotrypsin (Bos taurus, UniProt P00766); assay: biochemical
Protocol: as §4, §5
After 60 min pre-incubation at 30° C., 20 μL of substrate solution (50 mM Tris/HCl, pH 8, 0.5 M Na2SO4, 50 mM NaCl, 0.1 mM EDTA, 665 μM Succ-AAA-pNA) were added to each well and the reaction was further incubated at 30° C. for 60 min after which time the absorbance was read on the UV Thermomax® plate reader. Rows of wells were allocated for controls (no inhibitor) and for blanks (no inhibitor and no enzyme). […]
The percentage of inhibition was calculated using the formula: […]

human leukocyte elastase = molecular target: T1, human leukocyte elastase (Homo sapiens, UniProt P08246); assay: Specificity assay: human leukocyte elastase; format: biochemical
T1 sequence (P08246 30-267): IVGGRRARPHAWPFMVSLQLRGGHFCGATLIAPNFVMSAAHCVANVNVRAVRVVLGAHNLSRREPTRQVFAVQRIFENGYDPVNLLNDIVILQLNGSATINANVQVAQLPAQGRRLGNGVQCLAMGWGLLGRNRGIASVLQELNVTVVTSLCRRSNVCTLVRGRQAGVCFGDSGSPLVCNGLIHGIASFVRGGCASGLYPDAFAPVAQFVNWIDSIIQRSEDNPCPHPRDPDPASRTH
Protocol: (§1) The final conditions for each assay were as follows:
[100 μM Succ-AAPF-pNA [SEQ. ID NO.
(§2) The percentage of inhibition was calculated using the formula:
(§3) [1-((UVinn-UVblank)/(UVctl-UVblank))]×100

[3] = molecular target: T2, HCV NS3 protease type 1b/NS4A cofactor peptide (Hepatitis C virus genotype 1b, UniProt P26663); assay: Recombinant HCV NS3 protease/NS4A cofactor peptide radiometric assay; format: biochemical, HCV genotype 1b
T2 construct: recombinant HCV NS3 protease (amino acid 1027 to 1206) was cloned in the pET11d bacterial expression vector; made in house; host or cells: E. coli BL21(DE3)pLysS
T2 sequence (P26663 1027-1206, other chains not shown): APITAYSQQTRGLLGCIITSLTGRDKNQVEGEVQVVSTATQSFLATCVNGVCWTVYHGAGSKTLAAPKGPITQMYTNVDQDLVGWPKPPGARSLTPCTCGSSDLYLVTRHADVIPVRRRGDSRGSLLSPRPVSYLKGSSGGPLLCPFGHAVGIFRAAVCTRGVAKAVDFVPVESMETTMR

NS3 protease = NS3 protease (Hepatitis C virus genotype 1b, UniProt P26663); assay: Inhibition of NS3 protease by N-terminal cleavage product (assay not specified); format: biochemical, HCV; details: N-terminal cleavage product of an analog of a natural substrate
Chain of NS3 protease (P26663 1027-1208): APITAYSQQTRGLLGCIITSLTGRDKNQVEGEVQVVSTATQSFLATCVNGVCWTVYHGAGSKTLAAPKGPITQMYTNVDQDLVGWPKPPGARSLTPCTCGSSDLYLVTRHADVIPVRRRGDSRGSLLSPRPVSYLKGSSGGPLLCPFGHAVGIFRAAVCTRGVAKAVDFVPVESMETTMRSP

human liver cathepsin B = molecular target: T3, human liver cathepsin B (Homo sapiens, UniProt P07858); assay: Specificity assay: human liver cathepsin B; format: biochemical
T3 construct: from tissue; host or cells: human liver
Protocol: as §1
[100 mM NaHPO4 pH 6, 0.1 mM EDTA, 3% DMSO, 1 mM TCEP, 0.01% Tween-20, 30 μM Z-FR-pNA and 5 nM cathepsin B (tile stock enzyme was activated in buffer containing 20 mM TCEP before use)].
as §2, §3

[4] = Table 2, human leukocyte elastase, read-out: HLE
[5] = IC50, Table 2, unmarked values: NS3 protease/NS4A cofactor peptide radiometric assay
[6] = Table 5, first line of the cell, NS3 protease/NS4A cofactor peptide radiometric assay (Example 38), read-out: IC50

Compound | IC50 [1] [µM] | IC50 (human leukocyte elastase; [4]) [µM] | IC50 [3, 5] [µM] | IC50 (human leukocyte elastase) [µM] | further results
CC(=O)N[C@@H](CC(=O)O)C(=O)N[C@H](CCC(=O)O)C(=O)N[C@H](C(=O)N[C@H](C(=O)N1C[C@H](OCc2ccccc2)C[C@H]1C(=O)N[C@@H](CS)C(=O)O)C(C)C)C1CCCCC1 [compound 210] (Ac-D[dE][Chg]V[Hyp](Bn)C-OH) | > 300 | > 300 | 0.033 | – | IC50 [2]: > 300 µM
Ac-DDIVPC-OH [Ac-D-D-I-V-P-C-OH] | – | – | – | – | inhibition of NS3 protease (NS3 protease): inhibitory
CC[C@H](C)[C@H](NC(=O)[C@@H](CCC(=O)O)NC(=O)[C@H](CC(=O)O)NC(C)=O)C(=O)N[C@H](C(=O)N1C[C@H](OCc2ccccc2)C[C@H]1C(=O)NC1(C(=O)O)CC1)C(C)C [compound 212] (Ac-D[dE]IV[Hyp](Bn)[Ac3c]-OH; C-terminus assumed) | > 300 | > 300 | 0.21 | – | –
CC[C@@H]1C[C@]1(NC(=O)[C@@H]1C[C@@H](OCc2cccc3ccccc23)CN1C(=O)[C@@H](NC(=O)[C@@H](NC(=O)[C@@H](CCC(=O)O)NC(=O)[C@H](CC(=O)O)NC(C)=O)C1CCCCC1)C1CCCCC1)C(=O)O [compound 509] (Ac-D[dE][Chg][Chg][Hyp](CH2(1-naphthyl))[Acca(2-Et,1R,2R)]-OH) | – | – | – | > 300 | IC50 [3, 6]: 0.015 µM
CCC[C@H](NC(=O)[C@@H]1C[C@@H](OCc2ccccc2)CN1C(=O)[C@@H](NC(=O)[C@@H](NC(=O)[C@@H](CCC(=O)O)NC(=O)[C@H](CC(=O)O)NC(C)=O)[C@@H](C)CC)C(C)C)C(=O)O [compound 203] (Ac-D[dE]IV[Hyp](Bn)[Nva]-OH; C-terminus assumed) | > 300 | > 300 | 0.6 | – | IC50 (human liver cathepsin B; Table 2, marked **: human liver cathepsin B, read-out: Other (marked **)): > 300 µM
CC[C@@H]1C[C@]1(NC(=O)[C@@H]1C[C@@H](OCc2cccc3ccccc23)CN1C(=O)[C@@H](NC(=O)[C@@H](NC(=O)[C@@H](CCC(=O)O)NC(=O)[C@H](CC(=O)O)NC(C)=O)C1CCCCC1)C(C)C)C(=O)O [compound 518] (Ac-D[dE][Chg]V[Hyp](CH2(1-naphthyl))[Acca(2-Et,1R,2R)]-OH) | – | – | – | > 300 | IC50 [3, 6]: 0.011 µM
CCC[C@H](NC(=O)[C@@H]1CCCN1C(=O)[C@@H](NC(=O)[C@@H](NC(=O)[C@H](CC(=O)O)NC(=O)[C@H](CC(=O)O)NC(C)=O)[C@@H](C)CC)C(C)C)C(=O)O [compound 123] | > 300 | – | – | > 300 | IC50 ([3]; Table 1, unmarked values: NS3 protease/NS4A cofactor peptide radiometric assay, read-out: IC50): 220 µM
CCC[C@H](NC(=O)[C@@H]1C[C@@H](OCc2ccc3ccccc3c2)CN1C(=O)[C@@H](NC(=O)[C@@H](NC(=O)[C@@H](CCC(=O)O)NC(=O)[C@H](CC(=O)O)NC(C)=O)C1CCCCC1)C(C)C)C(=O)O [compound 214] (Ac-D[dE][Chg]V[Hyp](X1)[Nva]-OH) | > 300 | – | – | > 300 | IC50 [2]: > 300 µM; IC50 ([3]; Table 2, unmarked values: NS3 protease/NS4A cofactor peptide radiometric assay, read-out: IC50): 0.028 µM; IC50 (human liver cathepsin B): > 300 µM
